Data as given in patent US6790829B1, “Cyclic decapeptide antibiotics” (priority 1998, dated 2004).
In brackets after ≈: the same amount, converted by molar mass. Where a SMILES comes first, the peptide text is derived from it. [ ]: non-standard residue; d: D form. Orn = NCCC[C@H](N)C(=O)O

What was measured:
S. aureus (MRSA) = type: cell-based, Staphylococcus aureus
Method: (§1) Antimicrobial activity was determined by macrobroth dilution antimicrobial susceptibility testing. Solutions of the cyclic decapeptides (Loloatin A, B and C) and a control (vancomycin) were prepared in tryptic soy broth. Initially, a 100 μg/ml solution of each compound was tested. When inhibition of target microorganism was detected, serial two-fold dilutions of the compound in broth were tested to determine the minimal inhibitory concentration (MIC) of each compound for each target organisms. Target organisms tested are listed below in Table 3, and included methicillin resistant Staphylococcus aureus, vancomycin resistant Enterococcus sp. Escherichia coli, multiply drug resistant Pseudomonas aeruginosa; Stenofrophomonas maltophilia and Candida albicans. Turbidity standardized suspensions of each organism were prepared according to accepted protocols using a 0.5 McFarland turbidity standard, and these standardized suspensions were used to inoculate the tubes containing the compounds. Activity of a compound was indicated by lack of growth (turbidity) of one or more of the target organisms. See Woods, G. L. and Washington, J. A., “Antibacterial susceptibility tests: dilution and disk diffusion methods, Manual of Clinical Microbiology (6th Ed.), Murray, Baron, Pfaller, Tenover and Yolken Eds.), ASM Press, Washington D.C., 1995, pp. 1327-1341. Other compounds of the invention may be screened and evaluated for antibiotic activity in the same manner.

[1] = tested on: Enterococcus faecalis (13242); assay: microbe, parasite or virus in culture; type: cell-based; conditions: for BROTH DILUTION MIC: 13242
Method: as §1

[2] = tested on: Enterococcus faecalis (ATCC51299); assay: microbe, parasite or virus in culture; type: cell-based; conditions: for BROTH DILUTION MIC: ATCC51299
Method: as §1

[3] = tested on: Enterococcus faecium (19007); assay: microbe, parasite or virus in culture; type: cell-based; conditions: for BROTH DILUTION MIC: 19007
Method: as §1

[4] = tested on: Enterococcus faecium (F4641); assay: microbe, parasite or virus in culture; type: cell-based; conditions: for BROTH DILUTION MIC: F4641
Method: as §1

Enterococcus gallinarum = assay: microbe, parasite or virus in culture; type: cell-based
Method: as §1

Candida albicans [5] = type: cell-based
Method: as §1

Enterobacter cloacae [6] = type: cell-based
Method: as §1

Escherichia coli [7] = type: cell-based
Method: as §1

[8] = tested on: Group A Streptococcus (19615); type: cell-based
Method: as §1

[9] = tested on: Group B Streptococcus (12401); type: cell-based
Method: as §1

Pseudomonas aeruginosa [10] = type: cell-based
Method: as §1

[11] = tested on: Stenotrophomonas maltophilia; type: cell-based
Method: as §1

MRSA 034 = assay: In-vitro Microbiology of Fraction 73 (MIC/MBZ); type: cell-based, Staphylococcus aureus
Source text: (§2) The complex reaction mixture from Method C was chromatographed on reverse phase HPLC, and a microtiter plate assay was run throughout the entire chromatogram to identify active materials.

P.a. 028 = assay: In-vitro Microbiology of Fraction 73 (MIC/MBZ); type: cell-based, Pseudomonas aeruginosa
Source text: as §2

Candida albicans [12] = type: cell-based; remark: listed apart in the source
Method: (§3) Antimicrobial activity was determined by macrobroth dilution antimicrobial susceptibility testing. A solution of Loloatin B was prepared in tryptic soy broth. Initially, a […] solution of the peptide was tested. If inhibition of a target microorganism was detected, serial two-fold dilutions (in broth) of the Loloatin B solutions were tested to determine the minimal inhibitory concentration (MIC) of Loloatin B for each target organism Target organisms tested are identified in Table 2. Turbidity standardized suspensions of each organism were prepared according to accepted protocols using a 0.5 McFarland turbidity standard, and these standardized suspensions were used to inoculate a tube containing Loloatin B. Activity of Loloatin B was indicated by lack of growth (turbidity) of one or more of the target organisms.
(§4) See Woods, G. L. et al., “Antibacterial susceptibility tests: dilution and disk diffusion methods, Manual of Clinical Microbiology (6^thEd.), Murray, Baron, Pfaller, Tenover and Yolken (Eds.), ASM Press, Washington D.C., 1995, pp. 1327-1341.

Enterobacter cloacae [13] = type: cell-based; remark: listed apart in the source
Method: as §3, §4

Escherichia coli [14] = type: cell-based; remark: listed apart in the source
Method: as §3, §4

[15] = tested on: Methicillin resistant Staphylococcus aureus; type: cell-based
Method: as §3, §4

[16] = tested on: Penicillin resistant Streptococcus pneumoniae; type: cell-based
Method: as §3, §4

Pseudomonas aeruginosa [17] = type: cell-based; remark: listed apart in the source
Method: as §3, §4

[18] = tested on: Vancomycin resistant Enterococcus faecalis; type: cell-based
Method: as §3, §4

Xanthomonas maltophilia = type: cell-based
Method: as §3, §4

[19] = Microtiter plate assay of HPLC fractions to identify active materials; type: cell-based; conditions: reverse phase HPLC fractions of Method C cyclization mixture
Source text: as §2

[20] = Enterococcus faecium, read-out: BROTH DILUTION MIC

SMILES | BROTH DILUTION MIC (S. aureus (MRSA)) [µg/mL] | BROTH DILUTION MIC [1] [µg/mL] | BROTH DILUTION MIC [2] [µg/mL] | BROTH DILUTION MIC [3] [µg/mL] | BROTH DILUTION MIC [4] [µg/mL] | BROTH DILUTION MIC (Enterococcus gallinarum) [µg/mL] | BROTH DILUTION MIC (Candida albicans [5]) [µg/mL] | BROTH DILUTION MIC (Enterobacter cloacae [6]) [µg/mL] | BROTH DILUTION MIC (Escherichia coli [7]) [µg/mL] | BROTH DILUTION MIC [8] [µg/mL] | BROTH DILUTION MIC [9] [µg/mL] | BROTH DILUTION MIC (Pseudomonas aeruginosa [10]) [µg/mL] | BROTH DILUTION MIC [11] [µg/mL] | further results
CC(C)C[C@@H]1NC(=O)[C@H](CCCN)NC(=O)[C@H](C(C)C)NC(=O)[C@H](Cc2ccc(O)cc2)NC(=O)[C@H](CC(=O)O)NC(=O)[C@H](CC(N)=O)NC(=O)[C@@H](Cc2ccccc2)NC(=O)[C@H](Cc2ccccc2)NC(=O)[C@@H]2CCCN2C(=O)[C@@H](Cc2ccc(O)cc2)NC1=O [Loloatin A, cyclo[L-Val-L-Orn-L-Leu-D-Tyr-L-Pro-L-Phe-D-Phe-L-Asn-L-Asp-L-Tyr]] (cyclo(DYV[Orn]L[dY]PF[dF]N)) | 2 to 4 | 2 to 4 | 2 to 4 | 2 to 4 | 2 to 4 | 2 to 4 | 16 | >100 | >100 | <0.25 | <1 | >100 | >100 | 
CC(C)C[C@@H]1NC(=O)[C@H](CCCN)NC(=O)[C@H](C(C)C)NC(=O)[C@H](Cc2c[nH]c3ccccc23)NC(=O)[C@H](CC(=O)O)NC(=O)[C@H](CC(N)=O)NC(=O)[C@@H](Cc2ccccc2)NC(=O)[C@H](Cc2ccccc2)NC(=O)[C@@H]2CCCN2C(=O)[C@@H](Cc2ccc(O)cc2)NC1=O [Loloatin B, cyclo [L-Val-L-Orn-L-Leu-D-Tyr-L-Pro-L-Phe-D-Phe-L-Asn-L-Asp-L-Trp]] (cyclo(V[Orn]L[dY]PF[dF]NDW)) | 2 to 4 | 2 to 4 | 2 to 4 | 2 to 4 | 2 to 4 | 2 to 4 | 16 | >100 | >100 | <0.25 | <1 |  | >100 | MBZ (MRSA 034): 8.0; MIC (MRSA 034): 8.0; MBZ (P.a. 028): >128; MIC (P.a. 028): >128; Minimum Inhibitory Concentration (Candida albicans [12]): >100 µg/mL; Minimum Inhibitory Concentration (Enterobacter cloacae [13]): >100 µg/mL; Minimum Inhibitory Concentration (Escherichia coli [14]): >100 µg/mL; Minimum Inhibitory Concentration [15]: <2 µg/mL; Minimum Inhibitory Concentration [16]: <2 µg/mL; Minimum Inhibitory Concentration (Pseudomonas aeruginosa [17]): >100 µg/mL; Minimum Inhibitory Concentration [18]: <2 µg/mL; Minimum Inhibitory Concentration (Xanthomonas maltophilia): >100 µg/mL; biological activity of HPLC fraction (in words) [19]: exhibited the desired biological activity
CC(C)C[C@@H]1NC(=O)[C@H](CCCN)NC(=O)[C@H](C(C)C)NC(=O)[C@H](Cc2c[nH]c3ccccc23)NC(=O)[C@H](CC(=O)O)NC(=O)[C@H](CC(N)=O)NC(=O)[C@@H](Cc2ccccc2)NC(=O)[C@H](Cc2c[nH]c3ccccc23)NC(=O)[C@@H]2CCCN2C(=O)[C@@H](Cc2ccc(O)cc2)NC1=O [Loloatin C, cyclo [L-Val-L-Orn-L-Leu-D-Tyr-L-Pro-L-Trp-D-Phe-L-Asn-L-Asp-L-Trp]] (cyclo(DWV[Orn]L[dY]PW[dF]N)) | 0.5 to 1 | 1 to 2 | 2 to 4 | 2 | 2 | 1 to 2 | 16 | >100 | 1 to 2 | <0.25 | <0.25 | >100 | >100 | activity against Escherichia coli (in words) (Escherichia coli [7]; Escherichia coli, a gram negative rod bacteria, comment on Table 3): excellent activity
CN[C@H](CC(C)C)C(=O)N[C@H]1C(=O)N[C@@H](CC(N)=O)C(=O)N[C@H]2C(=O)N[C@H]3C(=O)N[C@H](C(=O)N[C@H](C(=O)O)c4cc(O)cc(O)c4-c4cc3ccc4O)[C@H](O)c3ccc(c(Cl)c3)Oc3cc2cc(c3O[C@@H]2O[C@H](CO)[C@@H](O)[C@H](O)[C@H]2O[C@H]2C[C@](C)(N)[C@H](O)[C@H](C)O2)Oc2ccc(cc2Cl)[C@H]1O [Vancomycin, vancomycin, reference compound] |  |  |  |  |  |  |  |  |  |  |  |  |  | MIC ([1]; Enterococcus faecalis, read-out: BROTH DILUTION MIC): > 100 µg/mL; MIC ([2]; Enterococcus faecalis, ATCC51299, read-out: BROTH DILUTION MIC): 20 µg/mL (≈ 13.8 µM); MIC [3, 20]: > 100 µg/mL; MIC [4, 20]: 6 µg/mL (≈ 4.14 µM); MIC (Enterococcus gallinarum; Enterococcus gallinarum, GALLINARUM, read-out: BROTH DILUTION MIC): 6 µg/mL (≈ 4.14 µM)
